Results reported in patent publication US11492325B2, “Compounds as inhibitors of sodium channels” (Human BioMolecular Research Institute, priority 2016, dated 2022).
Read-outs that look alike come from different tables or passages of the source.

What was measured:
[1] = tested on: normal human induced pluripotent stem cell (hiPSC) cardiomyocyte; conditions: for WT-Fold Prolongation: APD
[2] = tested on: cardiomyocytes derived from hiPSCs from a LQTS3 patient
[3] = WT cardiomyocytes, AP prolongation
[4] = LQT-3 cardiomyocytes, AP shortening

Row | Molecule | WT-Fold Prolongation ([1]; normal hiPSC cardiomyocytes) | Cessation of Beating ([1]; normal hiPSC cardiomyocytes) | LQT-Cessation Dose ([2]; LQT3 cardiomyocytes) | LQT-Fold Shortening ([2]; LQT3 cardiomyocytes) | WT-Prolongation Dose ([1]; normal hiPSC cardiomyocytes) | LQT-Shortening Dose ([2]; LQT3 cardiomyocytes) | further results
1 | Cc1cc(OCC(N)c2ccccc2)cc(C)n1.Cl (centres unmarked) [Compound 79] | 5.06 | None | None | 1.145 | – | – | WT-EAD Dose ([1]; normal hiPSC cardiomyocytes): 200 µM
2 | OCCNC(COc1cc(C(F)(F)F)cc(C(F)(F)F)c1)c1ccccc1 (centres unmarked) [Compound 93] | None | 66 µM | 22 µM | 1.5 | None | – | –
3 | NC(COc1cncc(C(F)(F)F)c1)c1ccccc1 (centres unmarked) [Compound 116] | – | – | – | – | – | – | WT-EC50 (μM) Prolongation [1, 3]: Does Not Prolong AP; LQT-Fold Shortening ([2]; LQT-3 cardiomyocytes): 1.422; LQT-EC50 (μM) Shortening [2, 4]: Shortens
4 | Cc1cc(C)cc(OCC(NCCO)c2ccccc2)c1 (centres unmarked) [Compound 92] | None | 66 µM | 66 µM | 1.41 | None | – | –
5 | Cc1ccc(OCC(N)C2CC2)cc1C.Cl (centres unmarked) [Compound 77] | None | 66 µM | 200 µM | 1.18 | None | – | –
6 | COc1ccc(C(N)COc2c(C)cccc2C)cc1 (centres unmarked) [Compound 15, 2-(2,6-dimethylphenoxy)-1-(4-methoxyphenyl)ethanamine] | None | 66 µM | 66 µM | 1.42 | None | – | –
7 | Cc1ccnc(OCC(N)c2ccccc2)c1 (centres unmarked) [Compound 95, 2-((4-methylpyridin-2-yl)oxy)-1-phenylethan-1-amine] | 2.68 | None | 22 µM | 1.22 | – | – | WT-EAD Dose ([1]; normal hiPSC cardiomyocytes): 133 µM
8 | Cc1cc(C)cc(OCC(N)c2ccccc2)c1 (centres unmarked) [Compound 104b] | – | – | – | – | – | – | EC50 ([2]; read-out: LQT-EC50 (μM)-Shortening, 'No AP' wraps to 'No AP shortening'): 0.87 µM
9 | Cc1ccc(OCC(N)c2ccccc2)cc1C.Cl (centres unmarked) [Compound 75] | None | 66 µM | 66 µM | 1.370 | None | – | –
10 | CC(=O)NC(C)COc1c(C)cccc1C (centres unmarked) [Compound 53] | None | None | None | None | None | None | –
11 | CCNC(COc1cccc(C)c1C)c1ccccc1 (centres unmarked) [Compound 33, 2-(2,3-dimethylphenoxy)-N-ethyl-1-phenylethanamine] | None | 133 µM | 22 µM | None | None | None | –
12 | Cc1cccc(C)c1OCC(=NOCc1ccccc1)C1CC1 [Compound 46] | None | – | – | 1.67 | None | – | Cessation of Beating [1]: None; LQT-Cessation Dose [2]: None
13 | COCCNC(COc1cnccc1C)c1ccccc1 (centres unmarked) [Compound 123] | – | – | – | – | – | – | WT-EC50 (μM) Prolongation [1, 3]: Does Not Prolong AP; LQT-Fold Shortening ([2]; LQT-3 cardiomyocytes): 1.402; LQT-EC50 (μM) Shortening [2, 4]: Shortens
14 | C[C@@H](N)COc1ccccc1Cl [Compound 58] | 2.392 | None | None | None | – | None | WT-EAD Dose ([1]; normal hiPSC cardiomyocytes): 200 µM
15 | Cc1cc(C)cc(OCC(NCCN2CCOCC2)c2ccccc2)c1 (centres unmarked) [Compound 98] | 1.54 | – | 66 µM | 1.3 | – | – | –
16 | CC(N)COc1ccccn1 (centres unmarked) [Compound 48, (Pyridin-2-yloxy)propan-2-amine] | None | None | None | None | None | None | WT-Cessation Dose ([1]; pyridyl derivatives): No cessation of beating; WT-EC50 (μM) Prolongation ([1]; pyridyl derivatives): Does Not Prolong AP; LQT-EC50 (μM) Shortening ([2]; pyridyl derivatives): Does Not Shorten; LQT-Fold Shortening ([2]; pyridyl derivatives): Does Not Shorten; LQT-Shortening Dose ([2]; pyridyl derivatives): Does Not Shorten
17 | NC(COc1ccnc(C(F)(F)F)c1)c1ccccc1 (centres unmarked) [Compound 128] | – | – | – | – | – | – | WT-EC50 (μM) Prolongation [1, 3]: Does Not Prolong AP; WT-Cessation Dose (μM) ([1]; WT cardiomyocytes, cessation of beating): No cessation of beating; LQT-Fold Shortening ([2]; LQT-3 cardiomyocytes): 1.226; LQT-EC50 (μM) Shortening [2, 4]: Shortens
18 | Cc1cccc(C)c1OCC(O)C(C)(C)C (centres unmarked) [Compound 22] | – | – | None | 1.29 | – | – | –

Row | Molecule | WT-Fold Prolongation ([1]; normal hiPSC cardiomyocytes) | Cessation of Beating ([1]; normal hiPSC cardiomyocytes) | LQT-Cessation Dose ([2]; LQT3 cardiomyocytes) | LQT-Fold Shortening ([2]; LQT3 cardiomyocytes) | WT-Prolongation Dose ([1]; normal hiPSC cardiomyocytes) | LQT-Shortening Dose ([2]; LQT3 cardiomyocytes) | further results
19 | Cc1cccc(C)c1OCC(C)NCCc1ccccc1 (centres unmarked) [Compound 44, 1-(2,6-dimethylphenoxy)-N-(2-phenylethyl)propan-2-amine] | 2.698 | 133 µM | 7.4 µM | 1.7 | – | – | WT-EAD Dose ([1]; normal hiPSC cardiomyocytes): 22 µM
20 | COCCNC(COc1ccc(C)nc1C)c1ccccc1 (centres unmarked) [Compound 125] | – | – | – | – | – | – | WT-EC50 (μM) Prolongation [1, 3]: Does Not Prolong AP; LQT-Fold Shortening ([2]; LQT-3 cardiomyocytes): Does Not Shorten; LQT-Shortening Dose (μM) ([2]; LQT-3 cardiomyocytes): Does Not Shorten; LQT-EC50 (μM) Shortening [2, 4]: Does Not Shorten
21 | Cc1cccc(C)c1OC[C@H](N)C1CC1.Cl [Compound 61] | 3.829 | – | – | None | – | None | Cessation of Beating [1]: None; WT-EAD Dose ([1]; human, 5 min): 66 µM; LQT-Cessation Dose ([2]; human, 5 min): 200 µM
22 | Cc1cccc(C)c1OCC(C)O (centres unmarked) [Compound 37] | None | None | None | None | None | None | –
23 | Cc1cccc(Cl)c1OCC(N)C1CCCCC1.Cl (centres unmarked) [Compound 76] | None | 66 µM | 66 µM | 1.244 | None | – | –
24 | Cc1cccc(C)c1OCC(C)NCc1ccccc1 (centres unmarked) [Compound 42, 1-(2,6-dimethylphenoxy)-N-benzylpropan-2-amine] | 1.684 | – | – | 1.26 | – | – | Cessation of Beating ([1]; human, 5 min): 200 µM; LQT-Cessation Dose ([2]; human, 5 min): 133 µM
25 | CC(COC1CCCCC1)=NOCc1ccccc1 [Compound 45] | None | None | None | 1.37 | None | – | –
26 | NC(COc1cc(C(F)(F)F)cc(C(F)(F)F)c1)c1ccc2ccccc2c1 (centres unmarked) [Compound 132] | – | – | – | – | – | – | WT-EC50 (μM) Prolongation [1, 3]: Does Not Prolong AP; LQT-Fold Shortening ([2]; LQT-3 cardiomyocytes): 1.205; LQT-EC50 (μM) Shortening [2, 4]: Shortens; LQT-Cessation Dose (μM) ([2]; LQT-3 cardiomyocytes, cessation of beating): No cessation of beating
27 | CC(N)COc1ccccc1C(F)(F)F (centres unmarked) [Compound 51, 1-(2-(Trifluoromethyl)phenoxy)propan-2-amine] | None | None | None | 1.37 | None | – | –
28 | 2-(2,6-dimethylphenoxy)-1-(4-methoxyphenyl)ethanamine [Compound 14] | None | None | None | None | None | None | LQT-IC50 (uM)-Shortening ([2]; APD shortening, LQT3 cardiomyocytes): None
29 | Cc1ccc(C(N)COc2c(C)cccc2C)cc1 (centres unmarked) [Compound 17, 2-(2,6-dimethylphenoxy)-1-p-tolylethanamine] | None | 66 µM | 66 µM | 1.58 | None | – | –
30 | NC(COc1ccccn1)c1ccccc1 (centres unmarked) [Compound 20, 1-phenyl-2-(pyridin-2-yloxy)ethanamine] | None | None | None | None | None | None | WT-Cessation Dose ([1]; pyridyl derivatives): No cessation of beating; WT-EC50 (μM) Prolongation ([1]; pyridyl derivatives): Does Not Prolong AP; LQT-EC50 (μM) Shortening ([2]; pyridyl derivatives): Does Not Shorten; LQT-Fold Shortening ([2]; pyridyl derivatives): Does Not Shorten; LQT-Shortening Dose ([2]; pyridyl derivatives): Does Not Shorten
31 | NC(COc1ccc(C(F)(F)F)nc1)c1ccccc1 (centres unmarked) [Compound 117] | – | – | – | – | – | – | WT-EC50 (μM) Prolongation [1, 3]: Does Not Prolong AP; LQT-Fold Shortening ([2]; LQT-3 cardiomyocytes): Does Not Shorten; LQT-Shortening Dose (μM) ([2]; LQT-3 cardiomyocytes): Does Not Shorten; LQT-EC50 (μM) Shortening [2, 4]: Does Not Shorten
32 | CCNC(C)COc1c(C)cccc1C (centres unmarked) [Compound 41, 1-(2,6-dimethylphenoxy)-N-ethylpropan-2-amine] | 5.338 | None | None | None | – | None | WT-EAD Dose ([1]; normal hiPSC cardiomyocytes): 133 µM
33 | CNC(COc1cccc(C)c1C)c1ccccc1 (centres unmarked) [Compound 34, 2-(2,3-dimethylphenoxy)-N-methyl-1-phenylethanamine] | None | 133 µM | 66 µM | 1.29 | None | – | –
34 | CCCNC(COc1cccc(C)c1C)c1ccccc1 (centres unmarked) [Compound 31, 2-(2,3-dimethylphenoxy)-N-propyl-1-phenylethanamine] | None | None | 133 µM | None | None | None | –
35 | c1ccc(CON=C(COc2ccccn2)c2ccccc2)cc1 [Compound 18] | None | None | None | None | None | None | –
36 | Cc1ccc(OCC(C)N)c(C)c1.Cl (centres unmarked) [Compound 64] | 2.621 | None | None | None | – | None | WT-EAD Dose ([1]; normal hiPSC cardiomyocytes): 133 µM
